Laboratory results reported in patent US10519101B2, “Trans-cyclooctene amino and hydroxy acids and their use in multiple cycloaddition reactions for labeling of molecules” (EUROPEAN MOLECULAR BIOLOGY LABORATORY, priority 2014, dated 2019).
“Also recorded” adds a separate entry of the source.

How the values were obtained:
tRNA^Pyl/PylRS^AF = molecular target: T1, tRNA^Pyl/PylRS^AF (Methanosarcina mazei, UniProt Q8PWY1, Y306A/Y384F); assay: Recombinant expression of GFP^TAG→UAA in E. coli (amber suppression, UAA incorporation); type: cell-based; settings: for protein yields / incorporation rate compared with compound 2: E. coli, 1 mM UAA, GFP^Y39TAG; for incorporation rate compared with compound 2: FIG. 12; for expression yield of GFP^TAG→UAA (Coomassie SDS-PAGE): compared with TCO
T1 construct: expressed in transfected cells; host or cells: E. coli Top10 (Invitrogen), co-transformed with pEvolv tRNA^Pyl/PylRS^AF and pBAD GFP^Y39TAG

[1] = 1H-NMR assay of orthogonality of seSPIEDAC and SPIEDAC reactions; type: physicochemical; settings: 5 mm dienophile, 10 mm tetrazine, DMSO-d6, 10 min at room temperature
Description: Stock solutions of the dienophiles in DMSO-d6 with a final concentration of 10 mm were prepared. A 20 mm stock of the formic acid salt of (4-(6-methyl-1,2,4,5-tetrazine-3-yl)phenyl)methanamine (termed as methyl tetrazine or Me-Tet-NH2) in DMSO-d6 was prepared, too. As control experiment, either the dienophile or the diene (Me-Tet-NH2) were mixed with DMSO-d6 1:1 (v/v; 760 μl total volume) to yield a final concentration of 5 mm or 10 mm, respectively, in the NMR tube. To confirm whether a dienophile reacts with the diene (Me-Tet-NH2) or not, the corresponding stocks were mixed 1:1 (v/v; 760 μl total volume) to yield a final concentration of 5 mm of the dienophile and 10 mm of the diene in the NMR tube. The samples were incubated for 10 min at room temperature before analyzed by ^1H-NMR.

[2] = Long time stability of the covalent bond in labeled proteins (FRET); settings: labeled with Me-Tet-Cy3, excess filtered off, 4 h to 76 h
Description: To proof the stability of the formed covalent bonds between TCO* and the dye-Tet in a SPIEDAC reaction, long time FRET experiments were carried out. Basically, the same FRET assay as described above was used to test whether the fluorophores stays covalently attached to the protein or not over a period of 36 h. 200 nM GFP^TAG→3 were separately reacted with 2 μM Me-Tet-Cy3 at room temperature (rt) and the ratio between D and A fluorophore was followed over time.
In another experiment, Ni-NTA-purified GFP^TAG→UAA (1-4) was labeled with Me-Tet-Cy3 (2 h, 37° C.). Excess Me-Tet-Cy3 was filtered off (˜2 h). 200 nM labeled GFP^TAG>UAA+Cy3 (with 1-4) were followed over time by FRET as described above. Note that the first data point was taken approximately 4 h after adding the tetrazine to the proteins. No significant changes between the FRET ratio measured after 4 h and after 76 h were observed (FIG. 7).

HEK293T cells = assay: Pulse-chase dual-color labeling of insulin receptor IR^TAG; type: cell-based
Description: For insulin receptor experiments, HEK293T cells were maintained in Dulbecco's Modified Eagle's Medium—DMEM (high glucose—4.5 g/l) supplemented with 10% FBS (Sigma), 1% L-glutamine (Invitrogen, Palo Alto, USA) and 1% Pen-Strep (Invitrogen) in a 5% CO2 atmosphere at 37° C. Cells were passaged every 2-3 days up to 15-20 passages. For microscopy, cells were seeded on 4-well chambered Lab-Tek #1.0 borosilicate coverglass (ThermoFisher, Ma USA) 15-24 h prior to transfections. Transfections were performed with JetPrime reagent (PegLab, Erlangen, Germany) according to the manufacturer's recommendations. In short, for double-transfections with IR and tRNA^Pyl/PylRS^AF vectors we used plasmids in 1:1 ratio keeping total amount of DNA at 1 μg. UAAs were added after the transfections in two pulses (see FIG. 2a). UAAs were dissolved in DMSO (250 mM stock of PrK; 100 mM stock of TCO*) or 20% formic-acid DMSO (500 mM stock of BCN; 250 mM stock of SCO). Each UAA was used at a final concentration of 250 μM. After the 2nd UAA pulse, cells were rinsed with fresh medium and kept overnight in DMEM.
In the morning following transfections, medium was exchanged to serum-free high glucose DMEM […], in which all the subsequent washing and labeling steps were also performed. The transfected cells were then labeled according to the following protocols. […]

[3] = Stability of UAAs by 1H-NMR without thiols; type: physicochemical; settings: dPBS (pH 7.4)/dioxane-d8 (v/v 1:1); rt, 37° C., 60° C.; 72 h
Description: Therefore, 0.1 M NaOH (for E. coli cells) and DMSO (for mammalian cells) are well suited solvents for the preparation of stock solutions for biological experiments. However, stock solutions were stored at −20° C. and thaw 30 min before usage.
Taking the properties of the purified compounds into account, these conditions resemble the nearest physiological conditions possible, as they prevail in biological experiments (living cells, aqueous buffered solutions of proteins) ((a) B. R. Varga, M. Kallay, K. Hegyi, S. Beni, P. Kele, Chemistry 2012, 18, 822-828; b) R. van Geel, G. J. Pruijn, F. L. van Delft, W. C. Boelens, Bioconjugate chemistry 2012, 23, 392-398).

[4] = Stability of trans-cyclooctenyl isomers against thiols by 1H-NMR; type: physicochemical; settings: two equivalents of cysteamine, 60° C., ten days (240 h)
Description: In order to test for stability against thiols, UAAs 2-4 were separately combined with two equivalents of cysteamine hydrochloride in dPBS/dioxane-d8 (v/v 1:1), NMR tubes were tightly sealed, and incubated at rt, 37° C., or 60° C. ^1H-NMR spectra were measured after 24 h of incubation and later time points (in case of 3). […] For all three trans-cyclooctene-containing UAAs, conversion of the trans-cyclooctenyl-form to its corresponding cis-cyclooctenyl-form was observed (FIG. 8b). […] These numbers were obtained by comparing the integrals for the double bond protons and the —CHO— protons (if possible/applicable) before and after the heat treatment as it was done before by others for similar compounds ((a) B. R. Varga, M. Kallay, K. Hegyi, S. Beni, P. Kele, Chemistry 2012, 18, 822-828; b) R. van Geel, G. J. Pruijn, F. L. van Delft, W. C. Boelens, Bioconjugate chemistry 2012, 23, 392-398; J. Yang, J. Seckute, C. M. Cole, N. K. Devaraj, Angew Chem Int Ed Engl 2012, 51, 7476-7479). Observations at different temperatures were consistent with the expectation that the higher the temperature, the faster/easier the isomerization. Isomerization to the cis-form continued in samples kept at rt or 37° C. after 24 h (data not shown).

[5] = FRET assay of labeling kinetics of GFP^TAG→UAA with Me-Tet-Cy3; settings: tested experimental conditions of the FRET assay; listed as SCO
Description: For observation of labeling kinetics, GFP^TAG→UAA was expressed with 1-5 (for structures of UAAs see FIG. 1a). E. coli lysate was adjusted to a final GFP concentration of 200 nM based on absorbance spectra. H-Tet-Atto532 7 or Me-Tet-Cy3 8 (see FIG. 4), respectively, were added to a final concentration of 2 μM and fluorescence spectra (excitation at λ=450 nm, emission λ=470-650 nm) were recorded at different time points. The experiments were carried out in a total volume of 2 ml and continuous stirring. 1 mM stocks of the dyes in DMSO were used. Successful labeling of GFP^TAG→UAA was monitored by Foerster resonance energy transfer (FRET) from the GFP-chromophore (serving as a Donor, D) to the synthetic fluorophore (Acceptor, A) when covalently attached. In the individual spectra this is visible by a decrease of GFP-fluorescence (around λ=503-506 nm) and a simultaneous increase of Atto532- (λ=551 nm) or Cy3-fluorescence (λ=563 nm), respectively, over time (shown exemplarily for GFP^TAG→3 (TCO*) in the left panel of FIG. 5). […] Note that time point “0 min” is defined as the time point about 15 s after pipetting the dye to the protein solution. […]

T1 sequence (Q8PWY1 whole entry Y306A/Y384F): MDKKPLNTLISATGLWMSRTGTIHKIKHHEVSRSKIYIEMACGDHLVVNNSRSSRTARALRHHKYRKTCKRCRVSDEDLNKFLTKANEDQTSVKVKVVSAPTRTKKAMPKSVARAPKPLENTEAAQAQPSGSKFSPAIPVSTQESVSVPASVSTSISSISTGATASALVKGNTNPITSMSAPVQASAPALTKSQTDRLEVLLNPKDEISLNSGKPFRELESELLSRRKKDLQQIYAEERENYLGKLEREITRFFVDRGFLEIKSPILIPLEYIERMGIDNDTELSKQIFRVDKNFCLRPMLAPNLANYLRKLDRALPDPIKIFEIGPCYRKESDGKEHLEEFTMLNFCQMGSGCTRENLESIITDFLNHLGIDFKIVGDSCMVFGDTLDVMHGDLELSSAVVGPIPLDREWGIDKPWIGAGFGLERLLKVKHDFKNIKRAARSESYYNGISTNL

**Q.** For `N[C@@H](CCCCNC(=O)OC1/C=C/CCCCC1)C(=O)O` (stereo in doubt) [Compound 3a, N-ε-((trans-Cyclooct-2-en-1-yloxy)carbonyl)-L-lysine], which protein yields (tRNA^Pyl/PylRS^AF) is on record?
**A.** 0.4 mg/L

**Q.** What about the “incorporation rate compared with compound 2” value (tRNA^Pyl/PylRS^AF) of the same compound?
**A.** more readily incorporated than compound 2 by about a factor of two

**Q.** What about the “expression yield of GFP^TAG→UAA (Coomassie SDS-PAGE)” value (shortened to “expression yield of GFP^TAG→UAA”) (tRNA^Pyl/PylRS^AF) of the same compound?
**A.** higher expression yields than the TCO

**Q.** Which protein yields (tRNA^Pyl/PylRS^AF) does the source give for `N[C@@H](CCCCNC(=O)OC1/C=C/CCCCC1)C(=O)O` (stereo in doubt) [Compound 3b, N-ε-((trans-Cyclooct-2-en-1-yloxy)carbonyl)-L-lysine] here?
**A.** 0.4 mg/L

**Q.** And the “incorporation rate compared with compound 2” value (tRNA^Pyl/PylRS^AF)?
**A.** more readily incorporated than compound 2 by about a factor of two

**Q.** What about the “expression yield of GFP^TAG→UAA” value (tRNA^Pyl/PylRS^AF) of the same compound?
**A.** higher expression yields than the TCO

**Q.** With `OC1CC2C=CC1C2` (centres unmarked) [5-norbornene-2-ol] as the compound, how does the “reaction with tetrazine Me-Tet-NH2 by 1H-NMR” value [1] read?
**A.** No new signals were detected

**Q.** For `N[C@@H](CCCCNC(=O)OCC1C2CCC#CCCC21)C(=O)O` (some centres unmarked) [Compound 1], which “stability of covalent bond, FRET ratio over time” value [2] is on record?
**A.** consistent FRET values over time

**Q.** And the “labeling of IR (confocal)” value (HEK293T cells; TCO* pulse, BCN chase, Me-Tet-Cy5, quencher, H-Tet-Atto532)?
**A.** no signal in the Atto532 channel was observed

**Q.** With `N[C@@H](CCCCNC(=O)OC1CC/C=C/CCC1)C(=O)O` (stereo partly drawn) [Compound 2, N-ε-((trans-Cyclooct-4-en-1-yloxy)carbonyl)-L-lysine] as the compound, how does the “stability by 1H-NMR” value [3] read?
**A.** remained un-changed

**Q.** Which results are given for `N[C@@H](CCCCNC(=O)OC1/C=C/CCCCC1)C(=O)O` (stereo partly drawn) [Compound 3, N-ε-((trans-Cyclooct-2-en-1-yloxy)carbonyl)-L-lysine]?
**A.** protein yields (tRNA^Pyl/PylRS^AF): 0.4 mg/L; incorporation rate compared with compound 2 (tRNA^Pyl/PylRS^AF): more readily incorporated than compound 2 by about a factor of two; expression yield of GFP^TAG→UAA (Coomassie SDS-PAGE) (tRNA^Pyl/PylRS^AF): higher expression yields than the TCO; stability by 1H-NMR [3]: remained un-changed; trans-form left after ten days [4]: more 3 (TCO*) was left in its trans-form than for 2 (TCO) and 4 (TCO^#) after 24 h; stability of covalent bond, FRET ratio over time [2]: consistent FRET values over time

**Q.** For `N[C@@H](CCCCNC(=O)OC1C/C=C/CCCC1)C(=O)O` (stereo partly drawn) [Compound 4, N-ε-((trans-Cyclooct-3-en-1-yloxy)carbonyl)-L-lysine], which “expression yield of GFP^TAG→UAA” value (tRNA^Pyl/PylRS^AF) is on record?
**A.** higher expression yields than the TCO

**Q.** And the “stability by 1H-NMR” value [3]?
**A.** remained un-changed

**Q.** Which results are given for `N[C@@H](CCCCNC(=O)OC1C#CCCCCC1)C(=O)O` (stereo partly drawn) [Compound 5, N-ε-((Cyclooct-2-yn-1-yloxy)carbonyl)-L-lysine]?
**A.** Reactivity with Me-Tet (in words) [5]: basically no detectable reactivity; also recorded: no substantial reactivity with Me-Tet; labeling of IR (confocal) (HEK293T cells; TCO* and SCO, Me-Tet-Cy5 then H-Tet-Atto532, 10 min): bright labeling of the IR in the plasma membrane for both channels
